Literature values in patent publication US6703034B2, “Neem oil microemulsion without cosurfactants or alcohols and a process to form the same” (University of Florida, priority 2000, dated 2004).

What was measured:
certain insects = conditions: quantities as low as
Insects = conditions: treated during larval and pupal stages

## C/C=C(\C)C(=O)O[C@H]1C[C@@H](OC(C)=O)[C@@]2(C(=O)OC)CO[C@H]3[C@@H](O)[C@@](C)([C@]45O[C@@]4(C)[C@H]4C[C@@H]5O[C@@H]5OC=C[C@@]54O)[C@H]4[C@]1(CO[C@]4(O)C(=O)OC)[C@@H]32 [azadirachtin]
Certain insects
  quantity at which potent (repels certain insects): 1 ppm
Insects
  time to death of treated insects: 3 to 14 days
